Where two headings read alike, the source gives them in different places.
What was measured:
[1] = Microscope photographs: crystal habit and particle fluidity; assay type: physicochemical; conditions: judged from microscope photographs
Excerpt: Microscope photographs of the samples of the crystal form A obtained in Example 1, the crystal form B obtained in Example 5 of the present disclosure, and the crystal forms 1, 2, 4, and 5 obtained in Preparation Example are shown in FIGS. 7-12, respectively.

[2] = assay type: physicochemical; conditions: for Changes of HPLC purity over 10 days: 10 days vs 0 day; for Stability of crystal form and HPLC data: 10 days
Description: The X-ray powder diffraction instrument and test conditions involved in the present disclosure were as follows: X-ray diffraction instrument model MiniFlex600Cu target; operation method: scanning speed 20°/min, scanning step width 0.02°. The liquid phase test conditions involved in the present disclosure were as follows: chromatographic column: Agilent Zorbax SB-18, 150×4.6 mm, 5 μm; mobile phase A: 0.1% phosphoric acid aqueous solution; mobile phase B: acetonitrile; detection wavelength: 205 nm; flow rate: 1.0 ml/min; injection volume: 5 μl; column temperature: […]. The samples of crystal form A obtained in Example 1, the crystal form B obtained in Example 5 of the present disclosure, and the crystal forms 1, 2, 4, and 5 obtained in Preparation Example were placed at 60° C. for 5 days and 10 days, respectively, and subjected to HPLC and XRD detection, respectively.

[3] = human, in vivo; cited from earlier work
[4] = 0 Day, before placing at 60° C.

| Compound | Particle fluidity [1] | HPLC purity (%) [2, 4] [%] | HPLC purity (%) ([2]; 60° C., 5 Days) | HPLC purity (%) ([2]; 60° C., 10 Days) | Changes of HPLC purity over 10 days ([2]; 60° C.) | Stability of crystal form and HPLC data [2] | Oral plasma concentration [3] |
| --- | --- | --- | --- | --- | --- | --- | --- |
| CC(C)(C)[C@H](NC(=O)C(F)(F)F)C(=O)N1C[C@H]2[C@@H]([C@H]1C(=O)N[C@H](C#N)C[C@@H]1CCNC1=O)C2(C)C [Crystal form A] | good in particle fluidity | 99.86 | 99.86 | 99.85 | −0.01 | more stable than crystal form 2, crystal form 4 and crystal form 5 |  |
| CC(C)(C)[C@H](NC(=O)C(F)(F)F)C(=O)N1C[C@H]2[C@@H]([C@H]1C(=O)N[C@H](C#N)C[C@@H]1CCNC1=O)C2(C)C [Crystal form 2] | poor fluidity | 93.83 | 93.71 | 93.52 | −0.31 |  |  |
| CC(C)(C)[C@H](NC(=O)C(F)(F)F)C(=O)N1C[C@H]2[C@@H]([C@H]1C(=O)N[C@H](C#N)C[C@@H]1CCNC1=O)C2(C)C [Crystal form 1] | poor fluidity | 95.34 | 95.34 | 95.31 | −0.03 | more stable than crystal form 2, crystal form 4 and crystal form 5 |  |
| CC(C)(C)[C@H](NC(=O)C(F)(F)F)C(=O)N1C[C@H]2[C@@H]([C@H]1C(=O)N[C@H](C#N)C[C@@H]1CCNC1=O)C2(C)C [Crystal form B] | good in particle fluidity | 99.57 | 99.56 | 99.54 | −0.03 | more stable than crystal form 2, crystal form 4 and crystal form 5 |  |
| CC(C)(C)[C@H](NC(=O)C(F)(F)F)C(=O)N1C[C@H]2[C@@H]([C@H]1C(=O)N[C@H](C#N)C[C@@H]1CCNC1=O)C2(C)C [Crystal form 5] | poor fluidity | 91.23 | 91.05 | 90.79 | −0.44 |  |  |
| CC(C)(C)[C@H](NC(=O)C(F)(F)F)C(=O)N1C[C@H]2[C@@H]([C@H]1C(=O)N[C@H](C#N)C[C@@H]1CCNC1=O)C2(C)C [Crystal form 4] |  | 93.31 | 93.26 | 93.14 | −0.17 |  |  |
| CC(C)(C)[C@H](NC(=O)C(F)(F)F)C(=O)N1C[C@H]2[C@@H]([C@H]1C(=O)N[C@H](C#N)C[C@@H]1CCNC1=O)C2(C)C [HS378, (1R, 2S, 5S)-N-{(1S)-1-cyano-2-[(3S)-2-oxopyrrolidin-3-yl]-ethyl}-6,6-dimethyl-3-[3-methyl-N-(trifluoroacetyl)-L-valyl]-3-azabicyclo [3.1.0]hexane-2-carboxamide] |  |  |  |  |  |  | exceeding in vitro antiviral cell efficacy |

— patent US20250340540A1, “Crystal Forms Of HS378 And Preparation Method Therefor” (priority 2022, published 2025)
